Measured values: US20050063999A1, “Use of at least one (dihydro)jasmonic acid derivative as a desquamating agent” (priority 2003, published 2005)

System: stratum corneum
Experiment: Desquamating power: count of corneocytes released from isolated stratum corneum discs after incubation with the test compound
Format: cell-based
Conditions: 1 % by weight compound in PBS buffer + 0.1% Triton X100, pH 7.4, 37° C., 24 hours, with stirring
Protocol: The desquamating power of the compound prepared in Example 1 above was studied. This test comprised counting the corneocytes released after incubating batches of stratum corneum, isolated by trypsin/heat from plastic surgery operations, in the presence of the test compound.
Discs of stratum corneum 4 mm in diameter were cut out with a punch and placed at the bottom of a 96-well plate. Two different stratum corneum samples were used.
A solution was prepared comprising 1 % by weight of compound of Example 1 in a PBS buffer supplemented at 0.1% with Triton X100. The pH of the solution was readjusted to 7.4.
50 microliters of test solution or of control solution (PBS buffer supplemented at 0.1% with Triton X100) were added to each well. The experiment was repeated three times. The mixture was incubated at 37° C., with stirring, for 24 hours.
10 microliters of solution were then collected and placed in a Mallassez cell. The corneocytes released were counted under a microscope.
The following results were obtained, which express the mean, for the three trials, of the number of corneocytes released per microliter. The corneocyte fragments were not counted.

CCCCCC1C(CC(=O)O)CCC1OC (racemic) [Compound of Example 1]
number of corneocytes released per microliter, mean (3 trials per sample), Sample No. 1 (stratum corneum Sample No. 1, control 6 ± 1): 17 ± 6 per microliter | number of corneocytes released per microliter, mean (3 trials per sample), Sample No. 2 (stratum corneum Sample No. 2, control 6 ± 2): 16 ± 6 per microliter
